According to patent publication US11874276B2, “STING levels as a biomarker for cancer immunotherapy” (Dana-Farber Cancer Institute, Inc., priority 2018, dated 2024):
Entries after “also recorded” stand apart in the source; their conditions may differ.

Legend:
Assay type in all cases: cell-based, human
[1] = tested on: TNBC cell lines; experiment: CXCL10 secretion by TNBC cell lines treated with STING agonist; conditions: all TNBC cell lines, relative to a control
Description: TNBC cell lines were also assayed for their responsiveness to the STING agonist AduroS100. Cells were treated with AduroS100 or a control and CXCL10 levels secreted into the supernatant were measured.

[2] = tested on: A549 cells; experiment: Immunoblot of STING in KL cell lines with LKB1 reconstitution with or without DNMT inhibitor; conditions: A549 cells (KL DNMT high) with LKB1 reconstitution
Description: FIGS. 16A to 16C. FIG. 16A: Immunoblot of the indicated proteins in KL cell lines transduced with the indicated vector. FIG. 16B: Correlation between STING and DNMT1 expression in KL cell lines. FIG. 16C: Immunoblot of the indicated proteins in KL cell lines transduced with the indicated vector with or without 100 nM 5-aza-2′-deoxycytidine (DAC) treatment for 7 days.

[3] = tested on: H69 cells; experiment: Immunoblot of STING in H69 cells after GSK126 treatment
From the text: Immunoblot of STING, histone H3K27me3 and β-actin levels in H69 cells after GSK126 (EZH2 inhibitor) treatment at the indicated concentrations and for the indicated number of days.
(§1) Protein was isolated from cell lines and measured by BCA (Pierce Biotechnology). Protein extracts were subjected to polyacrylamide gel electrophoresis using the 4%-12% NuPAGE gel system (Invitrogen, Carlsbad, CA), transferred to PVDF (Millipore) membranes, and immunoblotted using antibodies that specifically recognize TBK1 (#3013), S172 pTBK1 (#5483), pERK1/2 (#4370), ERK1/2 (#9107), S473 pAKT (#4060), AKT (#9272), S396 pIRF3 (#4947), IRF3 (#4302), Y701 pSTAT1 (#9171), STAT1 (#9172), AXL (#8661), EZH2 (#5246), STING (#13647), MAVS (#3993), E-Cadherin (#3195), Vimentin (#5741), β-Actin (#4970), Tubulin (#2144) (Cell Signaling Technologies, Danvers, MA) and IKKε (#14907) (Sigma-Aldrich, St. Louis, MO).

[4] = tested on: H69 cells; experiment: EZH2 inhibition of H69 cells followed by IFNγ exposure; SPARCS qRT-PCR and cytokine profiling; conditions: for reactivation / de-repression of SPARCS ERVs: 5 μM for 6 days, then IFNγ 24 h
Description: For EZH2 inhibition experiments, H69 cells were treated with 5 μM GSK126 for 6 days. Drug was replenished every 3 days with both suspension and adherent cells carried each time. After the GSK126 treatment period, equal numbers of DMSO-treated and GSK126-treated cells were exposed to either H2O or 200 ng/mL IFN-γ for 24 hours before harvesting of RNA or conditioned media (CM).
(§2) Multiplex assays were performed utilizing the bead-based immunoassay approach Bio-Plex Pro™ Human Cytokine 40-plex Assay (Cat #171AK99MR2) on a Bio-plex 200 system (Cat #171000201) (Bio-Rad Laboratories, Hercules, CA) and the Human Cytokine/Chemokine Maganetic Bead Panel (Cat #HCYTMAG-60K-PX30) on a Luminex MAGPIX system (Merck Millipore, Billerica, MA). Conditioned media concentration levels [pg/ml] of each protein were derived from 5-parameter curve fitting models. Fold changes relative to the corresponding control were calculated and plotted as log 2FC. Lower and upper limits of quantitation (LLOQ/ULOQ) were imputed from standard curves for cytokines above or below detection.
(§3) Total cellular RNA was extracted using the miRNeasy Mini Kit (Qiagen, Hilden, Germany) according to manufacturer's instructions. After extraction, 1 μg total RNA was used to generate cDNA with the SuperScript III First-Strand Synthesis SuperMix for qRT-PCR kit (Thermo Fisher Scientific, Waltham, MA). Quantitative reverse transcription PCR (qRT-PCR) of the indicated genes was performed using SYBR green PCR Master Mix (Applied Biosystems, Foster City, CA) and the Applied Biosystems 7300 Fast real-time PCR system and software. The relative expression was normalized with the expression of the housekeeping gene 36B4.

[5] = tested on: H69AR cells; experiment: IFNγ pulsed H69AR cells chased in media with drug; pSTAT1 immunoblot, CXCL10/ERV qRT-PCR, CXCL10 ELISA; conditions: 10 min IFNγ pulse, 24 h chase, 1 μM
Description: For IFN pulse experiments, cells were pulsed 10 minutes with IFN-γ 200 ng/mL or 10 ng/mL), IFN-α 10 000 U/mL), or IFN-β 10 000 U/mL), extensively washed, and chased in fresh media for an additional 24, 48 or 72 hours. To test drug effects on gene expression or protein secretion, IFN-γ pulsed H69AR cells were treated with DMSO, 1 μM MRT67307 or 100 nM Ruxolitinib for 24, 48 and 72 hours. Proteome Profiler™ Human Cytokine Array Kit (#ARY005B) and CXCL10 ELISA (#DIP100) (R&D Systems, Minneapolis, MN), were performed according to manufacturer's instructions. For cytokine array, conditioned media (CM) from SCLC cells at basal conditions was collected after 48 and 72 hours. For CXCL10 ELISA, CM from IFN-γ pulsed cells was collected after 72 hours. Total cellular RNA was extracted using the miRNeasy Mini Kit (Qiagen, Hilden, Germany) according to manufacturer's instructions. After extraction, 1 μg total RNA was used to generate cDNA with the SuperScript III First-Strand Synthesis SuperMix for qRT-PCR kit (Thermo Fisher Scientific, Waltham, MA). Quantitative reverse transcription PCR (qRT-PCR) of the indicated genes was performed using SYBR green PCR Master Mix (Applied Biosystems, Foster City, CA) and the Applied Biosystems 7300 Fast real-time PCR system and software. The relative expression was normalized with the expression of the housekeeping gene 36B4.

[6] = tested on: H69AR cells, SPARCS high cell lines; experiment: IFN pulse-chase of SCLC and other cancer cell lines; qRT-PCR, immunoblot
Description: To test drug effects on gene expression or protein secretion, IFN-γ pulsed H69AR cells were treated with DMSO, 1 μM MRT67307 or 100 nM Ruxolitinib for 24, 48 and 72 hours.
as §1, §3

[7] = tested on: H69AR cells; experiment: Poly(I:C) transfection of H69AR cells; qRT-PCR; conditions: 72 h following transfection
Description: as §3
For Poly(I:C) dsRNA treatment experiments, H69ARsgCTRL and H69ARsgMAVS cells were plated in RPMI media, transfected with 0.5 μg/mL Poly(I:C) HMW (InvivoGen, Sand Diego, CA) using XtremeGene HP transfection reagent (Sigma-Aldrich, St. Louis, MO) and cultured for 72 hours. On day 3 after transfection, conditioned media was recovered and CXCL10 protein expression was quantified using Human CXCL10/IP-10 Quantikine ELISA kit (R&D Systems, Minneapolis, MN). RNA was extracted and expression levels of relevant genes were analyzed by qRT-PCR.

[8] = tested on: NSCLC PDOTS; experiment: Ex vivo culture of patient-derived organotypic tumor spheroids (PDOTS); cytokine profiling and viability; conditions: in contrast to NSCLC-2; for production of multiple cytokines/chemokines, especially CXCL10: NSCLC-1 PDOTS (SPARCS high features); for sensitization to ex vivo PD-1 blockade with nivolumab: NSCLC-1 PDOTS, viability Day 6
From the text: PDOTS from human NSCLC resection specimens were generating according to the recent publication^21. Briefly, fresh tumor specimens were minced and resuspended in media with collagenase type IV (Life Technologies, Carlsbad, CA). After digestion, samples were strained over 100 μm filter and 40 μm filters to generate S1 (>100 μm), S2 (40-100 μm), and S3 (<40 μm) spheroid fractions. S2 spheroid fraction was pelleted and resuspended in type I rat tail collagen (Corning, Corning, NY) at a concentration of 2.5 mg/mL. The spheroid-collagen mixture was then injected into the center gel region of the 3D microfluidic culture device. Collagen hydrogels containing PDOTS were hydrated with media and treated with anti-PD-1 (Nivolumab, 100 μg/mL), IFNγ (200 ng/mL), Poly (I:C) (0.5 μg/mL) or combination (Nivolumab+IFNγ Nivolumab+Poly (I:C)). The number of Live/Dead cells in each treatment condition was determined by Trypan Blue Exclusion method and plotted as percentage of viability.
as §2

## Nc1ncnc2c1ncn2[C@@H]1O[C@@H]2COP(O)(=S)O[C@@H]3C(O)[C@@H](COP(O)(=S)O[C@H]2[C@H]1O)O[C@H]3n1cnc2c(N)ncnc21 (some centres unmarked) [AduroS100]
[1]
  CXCL10 levels secreted into the supernatant: elevated levels; also recorded: increased CXCL10 production

## Nc1ncn([C@H]2C[C@H](O)[C@@H](CO)O2)c(=O)n1 [DNMT inhibitor, 5-aza-2′-deoxycytidine]
[2]
  STING expression: able to restore STING expression

## CC[C@H](C)n1cc(C)c2c(C(=O)NCc3c(C)cc(C)[nH]c3=O)cc(-c3ccc(N4CCNCC4)nc3)cc21 [GSK126]
[3]
  STING protein expression: induces STING protein expression
[4]
  reactivation / de-repression of SPARCS ERVs: induced their reactivation
[4]; listed as EZH2 inhibitor
  reactivation / de-repression of SPARCS ERVs: de-repressed the same SPARCS as in H69AR cells
[4]; treatment over 6 days
  IFNγ induced cytokine secretion: enhanced

## O=C(NCCCNc1nc(Nc2cccc(CN3CCOCC3)c2)ncc1C1CC1)C1CCC1 [MRT67307]
[5]
  effect on downstream CXCL10 expression: partially inhibited

## IFNα
[6]; H69AR cells, 10 min pulse with chase
  SPARCS upregulation (MLT1C49, MLT1A): SPARCS upregulation

## Poly(I:C)
[7]
  SPARCS upregulation: SPARCS upregulation
  induction of type I/II IFNs: Induction of type I/II IFNs was also confirmed
[8]
  production of multiple cytokines/chemokines, especially CXCL10: markedly enhanced; also recorded: markedly enhances CXCL10 production
  sensitization to ex vivo PD-1 blockade with nivolumab: sensitized; also recorded: sensitizes them to PD-1 blockade

B1: IFNγ: Recombinant human IFN-γ protein from R&D Systems (protein, UniProt P01579 24-161, looked up)
Interferon gamma: QDPYVKEAENLKKYFNAGHSDVADNGTLFLGILKNWKEESDRKIMQSQIVSFYFKLFKNFKDDQSIQKSVETIKEDMNVKFFNSNKKKRDDFEKLTNYSVTDLNVQRKAIHELIQVMAELSPAAKTGKRKRSQMLFRG
[8]
  production of multiple cytokines/chemokines, especially CXCL10: markedly enhanced
  sensitization to ex vivo PD-1 blockade with nivolumab: sensitized
[6]; H69AR but not H69 cells, pulse treatment
  pTBK1, pIRF3 and pSTAT1 activation: hyperactivated and sustained
[6]; H69AR cells, 10 minute pulse
  induction of TRIM22 and MLT1C49: marked induction
[6]; SPARCS high cells relative to SPARCS low cells, pulse treatment
  MLT1C49, CXCL10 and PD-L1 expression: significantly induced
